# Patent publication US20230330041A1, “APPLICATION OF TRIS (HYDROXYMETHYL) AMINOMETHANE PHARMACEUTICALLY ACCEPTABLE SALT TO DRUGS FOR TREATING […]” (BEIJING CHANGSHENG PHARMACEUTICAL TECHNOLOGY CO., LTD., priority 2020, published 2023)
# Read-outs that look alike come from different tables or passages of the source.
# Tests used:
# [1] = 50 mg sodium urate in 35 ml of 0.3 mol/L solution pH 7.4±0.5, 36.5° C., 4 hours, 60 rpm
# [2] = test system: uric acid crystals in rat kidneys; settings: for kidney weight / serum uric acid: day 5; for kidneys observed with obvious radial white lines (uric acid crystal deposition): 5 days
# Method: Except for the normal control group, the other groups were intraperitoneally injected with 300 mg/kg of potassium oteronate and intragastrically perfused with 300 mg/kg of hypoxanthine, and the volume of injection and intragastrical perfusion were 5 ml/kg respectively. The normal control group was administered with the same volume of 0.5% CMC-Na, and the model was established at 0.5 h after the second administration every day with once a day and for five consecutive days. […] The normal and model control groups were administered with the same volume of 0.5% CMC-Na by gastric perfusion.
# On the 4th day of the test, the rats were fasted overnight (about 16 h). On the 5th day of the test, the rats were weighed and anesthetized by intraperitoneal injection of 60 mg/kg sodium pentobarbital, with an injection volume of 2 ml/kg. About 0.7 mL of blood was collected from the orbit and then the kidney was removed. The whole blood was centrifuged at 6000 r/min for 10 min, the supernatant was taken and stored at -20° C. for keeping the blood uric acid content to be determined. The kidney was weighed, opened to observe the deposition of uric acid crystals in white radial pattern, and stored at -70° C. for future use.
# Uric acid content determination: After the serum was rapidly remelted, the uric acid content was determined according to the method specified in the instructions for use, and the serum uric acid content was calculated.
# Data processing: The data were expressed as mean ± standard deviation (x ± SD) and analyzed with SPSS 25.0 software. One-Way ANOVA was used for comparison among multiple groups. LSD test was used for homogeneity of variance, where P <0.05 was considered as statistically significant.
# [3] = 36.5° C., 60 rpm
# Method: Experimental materials were as follows: a. uric acid (crystal); b.
# Background: An assumption was set that a 60 kg hyperuricemic patient with a total blood volume of 4500 ml has 7 mg of uric acid dissolved in 100 ml of blood and 3 mg of uric acid crystals in 100 ml of blood.
smiles,measurement,setting,value
"Cl.NC(CO)(CO)CO [Changsheng No. 1, trimethylol aminomethane hydrochloride]",dissolution of sodium urate crystals,[1],dissolved completely
same,"uric acid crystal deposition in the kidney, dose dependence","[2]; 0.85-3.40 g/kg, solution at pH 7.4",dose-dependently reduced
same,kidney weight,[2]; 0.85 g/kg,2.636 ± 0.491 g
same,serum uric acid,[2]; 0.85 g/kg,976.91 ± 172.29 µmol/L
same,kidneys observed with obvious radial white lines (uric acid crystal deposition),[2]; 0.85 g/kg/day by gavage,11/14
same,kidney weight,[2]; 1.70 g/kg,2.507 ± 0.461 g
same,serum uric acid,[2]; 1.70 g/kg,838.42 ± 3.19 µmol/L
same,kidneys observed with obvious radial white lines (uric acid crystal deposition),[2]; 1.7 g/kg/day by gavage,5/14
same,kidney weight,[2]; 3.40 g/kg,2.207 ± 0.114 g
same,serum uric acid,[2]; 3.40 g/kg,965.17 ± 215.90 µmol/L
same,kidneys observed with obvious radial white lines (uric acid crystal deposition),"[2]; 3.40 g/kg/day by gavage, hydrochloride",no difference from that of the normal control group
same,kidneys observed with obvious radial white lines (uric acid crystal deposition),"[2]; 3.40 g/kg/day by gavage, listed as Changsheng No.1, hydrochloride",none of 14
same,blood uric acid content compared with the model control group,"[2]; all dose groups (0.85, 1.70, 3.40 g/kg)",effect of improvement
same,Dissolving time,"[3]; test 1: 0.3 mol/L, 0.5 ml/kg (30 ml), 7 mg dissolved + 3 mg crystalized uric acid per 100 ml",4 h
same,Dissolving time,"[3]; test 2: 0.3 mol/L, 1.0 ml/kg (60 ml), 7 mg dissolved + 3 mg crystalized uric acid per 100 ml",2 h
same,Dissolving time,"[3]; test 3: 0.3 mol/L, 1.5 ml/kg (90 ml), 7 mg dissolved + 3 mg crystalized uric acid per 100 ml",2 h
same,Dissolving time,"[3]; test 4: 0.3 mol/L, 2.0 ml/kg (120 ml), 7 mg dissolved + 3 mg crystalized uric acid per 100 ml",0.5 h
same,Dissolving time,"[3]; test 5: 0.3 mol/L, 3.0 ml/kg (180 ml), 7 mg dissolved + 3 mg crystalized uric acid per 100 ml",0.5 h
same,Dissolving time,"[3]; test 6: 0.6 mol/L, 0.5 ml/kg (30 ml), 7 mg dissolved + 8 mg crystalized uric acid per 100 ml",4 h
same,Dissolving time,"[3]; test 7: 0.6 mol/L, 1.0 ml/kg (60 ml), 7 mg dissolved + 8 mg crystalized uric acid per 100 ml",2 h
same,Dissolving time,"[3]; test 8: 0.6 mol/L, 1.5 ml/kg (90 ml), 7 mg dissolved + 8 mg crystalized uric acid per 100 ml",0.5 h
same,dissolution of uric acid in the solution,"21 mg uric acid in 100 ml of 8 mM (pH 7.4) solution, stirring 1 hour",completely dissolved
same,uric acid level at which the complex did not precipitate as crystals,"after treatment with the solution, extrapolated to blood",up to 1260 µmol/L
